Values quoted from earlier work, collected in patent publication US9265724B2, “Oral dosage form of tetrahydrocannabinol and a method of avoiding and/or suppressing hepatic first pass metabolism via targeted chylomicron/lipoprotein delivery” (priority 2005, dated 2016).

Key:
[1] = low aqueous solubility and high permeability

In the case of `CCCCCc1cc(O)c2c(c1)OC(C)(C)[C@@H]1CCC(C)=C[C@@H]21` [Δ^9-THC, Δ^9-tetrahydrocannabinol], the absorbed (after a single oral dose) is given as 90-95%, the “continuation of appetite stimulant effect” value (after administration) is given as no less than 24 h and the “duration of action for psychoactive effects” value (after oral administration) is given as 4 to 6 h. The peak effect (after oral administration) was 2 to 4 h, the “administered dose that reaches systemic circulation” value (oral) was 10-20% and the maximal plasma levels (oral dosing of 20 mg in a sesame oil formulation) was “around 10 ng/ml”. For the same compound, the “biopharmaceutical classification system (BCS) class” value [1] was “Class II”.
